Tested on: rabbit skeletal myofibrils (approximately 90% fast fibers)
Experiment: Activation of fast skeletal myofibrils (PUMA coupled-enzyme ATPase assay, AC1.4)
Format: biochemical
Conditions: Table 2; concentration at which the compound increased enzymatic activity by 40%; calcium at pCa25

Row | Mean AC1.4 | Compound
1 | D (D=>20 uM) | NC(=O)c1cccc(-c2nsc(NCC(O)c3ccc(F)cc3)n2)c1 (stereo not shown) [3-(5-{[2-(4-fluorophenyl)-2-hydroxyethyl]amino}-1,2,4-thiadiazol-3-yl)benzamide]
2 | C (C=10-20 uM) | Cc1ccc(Cc2nsc(NCCc3ccc(Cl)cc3)n2)cc1 [[2-(4-chlorophenyl)ethyl]{3-[(4-methylphenyl)methyl](1,2,4-thiadiazol-5-yl)}amine]
3 | D (D=>20 uM) | COc1cccc(Cc2nsc(NCc3ccc(Cl)cc3)n2)c1 [[(4-chlorophenyl)methyl]{3-[(3-methoxyphenyl)methyl](1,2,4-thiadiazol-5-yl)}amine]
4 | D (D=>20 uM) | CN1CCN(C(=O)CNc2nc(-c3cccc(C(N)=O)c3)ns2)CC1 [3-(5-{[2-(4-methylpiperazinyl)-2-oxoethyl]amino}-1,2,4-thiadiazol-3-yl)benzamide]
5 | D (D=>20 uM) | N#Cc1cccc(-c2nsc(NCCc3ccc(F)cc3)n2)c1 [3-(5-{[2-(4-fluorophenyl)ethyl]amino}-1,2,4-thiadiazol-3-yl)benzenecarbonitrile]
6 | B (B=1-10 uM) | CC(C)(CNc1nc(-c2ccccc2)ns1)c1ccc(F)cc1 [[2-(4-fluorophenyl)-2-methylpropyl](3-phenyl(1,2,4-thiadiazol-5-yl))amine]
7 | B (B=1-10 uM) | C[C@H](CNc1nc(-c2cn[nH]c2)ns1)c1ccc(F)cc1 [[(2S)-2-(4-fluorophenyl)propyl](3-pyrazol-4-yl(1,2,4-thiadiazol-5-yl))amine]
8 | D (D=>20 uM) | CC(=O)N1CCC(CNc2nc(-c3cccc(C(N)=O)c3)ns2)(c2ccc(F)cc2)CC1 [3-[5-({[1-acetyl-4-(4-fluorophenyl)-4-piperidyl]methyl}amino)-1,2,4-thiadiazol-3-yl]benzamide]
9 | D (D=>20 uM) | NC(=O)c1cccc(-c2nsc(NCC3(c4ccc(F)cc4)CCNCC3)n2)c1 [3-[5-({[4-(4-fluorophenyl)-4-piperidyl]methyl}amino)-1,2,4-thiadiazol-3-yl]benzamide]
10 | B (B=1-10 uM) | COc1ccc(-c2nsc(NCC(C)(C)c3ccc(F)cc3)n2)c(Cl)c1 [[3-(2-chloro-4-methoxyphenyl)(1,2,4-thiadiazol-5-yl)][2-(4-fluorophenyl)-2-methylpropyl]amine]
11 | A (A=<1 uM) | C[C@@H](CNc1nc(Cc2cccc(O)c2)ns1)c1ccc(F)cc1 [3-[(5-{[(2R)-2-(4-fluorophenyl)propyl]amino}-1,2,4-thiadiazol-3-yl)methyl]phenol]
12 | B (B=1-10 uM) | C=Cc1nsc(NCC(C)(C)c2ccc(F)cc2)n1 [[2-(4-fluorophenyl)-2-methylpropyl](3-vinyl(1,2,4-thiadiazol-5-yl))amine]
13 | D (D=>20 uM) | CN(C)CCc1nsc(NCC(C)(C)c2ccc(F)cc2)n1 [[2-(5-{[2-(4-fluorophenyl)-2-methylpropyl]amino}(1,2,4-thiadiazol-3-yl))ethyl]dimethylamine]
14 | D (D=>20 uM) | CN(C)CCNc1nsc(NCC(C)(C)c2ccc(F)cc2)n1 [{2-[(5-{[2-(4-fluorophenyl)-2-methylpropyl]amino}(1,2,4-thiadiazol-3-yl))amino]ethyl}dimethylamine]
15 | B (B=1-10 uM) | CC(C)(CNc1nc(-c2ccccc2CO)ns1)c1ccc(F)cc1 [[2-(5-{[2-(4-fluorophenyl)-2-methylpropyl]amino}-1,2,4-thiadiazol-3-yl)phenyl]methan-1-ol]
16 | D (D=>20 uM) | COc1cccc(Cc2nsc(Nc3ccc(Cl)cc3)n2)c1 [(4-chlorophenyl){3-[(3-methoxyphenyl)methyl](1,2,4-thiadiazol-5-yl)}amine]
17 | B (B=1-10 uM) | Oc1cccc(Cc2nsc(NCCc3ccc(Cl)cc3)n2)c1 [3-[(5-{[2-(4-chlorophenyl)ethyl]amino}-1,2,4-thiadiazol-3-yl)methyl]phenol]
18 | D (D=>20 uM) | CC(C)(CNc1nc(CN2CCCCC2)ns1)c1ccc(F)cc1 [[2-(4-fluorophenyl)-2-methylpropyl][3-(piperidylmethyl)(1,2,4-thiadiazol-5-yl)]amine]
19 | D (D=>20 uM) | CN(C)c1nc(-c2cccc(C(N)=O)c2)ns1 [3-[5-(dimethylamino)-1,2,4-thiadiazol-3-yl]benzamide]
20 | D (D=>20 uM) | COCCNc1nsc(NCC(C)(C)c2ccc(F)cc2)n1 [[2-(4-fluorophenyl)-2-methylpropyl]{3-[(2-methoxyethyl)amino](1,2,4-thiadiazol-5-yl)}amine]
21 | B (B=1-10 uM) | CCc1nsc(NCC(C)(C)c2ccc(F)cc2)n1 [(3-ethyl(1,2,4-thiadiazol-5-yl))[2-(4-fluorophenyl)-2-methylpropyl]amine]
22 | C (C=10-20 uM) | CC(=O)NCCCc1nsc(NCC(C)(C)c2ccc(F)cc2)n1 [N-[3-(5-{[2-(4-fluorophenyl)-2-methylpropyl]amino}-1,2,4-thiadiazol-3-yl)propyl]acetamide]
23 | B (B=1-10 uM) | CC(C)(CNc1nc(CCCNS(C)(=O)=O)ns1)c1ccc(F)cc1 [[3-(5-{[2-(4-fluorophenyl)-2-methylpropyl]amino}(1,2,4-thiadiazol-3-yl))propyl](methylsulfonyl)amine]
24 | A (A=<1 uM) | CC(C)(CNc1nc(-c2ccc3[nH]nc(N)c3c2)ns1)c1ccc(F)cc1 [[3-(3-amino(1H-indazol-5-yl))(1,2,4-thiadiazol-5-yl)][2-(4-fluorophenyl)-2-methylpropyl]amine]
25 | D (D=>20 uM) | CN(CCO)Cc1nsc(NCC(C)(C)c2ccc(F)cc2)n1 [2-{[(5-{[2-(4-fluorophenyl)-2-methylpropyl]amino}(1,2,4-thiadiazol-3-yl))methyl]methylamino}ethan-1-ol]
26 | D (D=>20 uM) | CC(C)(CNc1nc(CN2CCC(O)CC2)ns1)c1ccc(F)cc1 [1-[(5-{[2-(4-fluorophenyl)-2-methylpropyl]amino}-1,2,4-thiadiazol-3-yl)methyl]piperidin-4-ol]
27 | C (C=10-20 uM) | CC(C)(CNc1nc(CCN2CCCC(O)C2)ns1)c1ccc(F)cc1 (stereo not shown) [1-[2-(5-{[2-(4-fluorophenyl)-2-methylpropyl]amino}-1,2,4-thiadiazol-3-yl)ethyl]piperidin-3-ol]

Same assay, conditions: Table 3; concentration at which the compound increased enzymatic activity by 40%; calcium at pCa25

Row | Mean AC1.4 | Compound
28 | B (B=1-10 uM) | CC(C)(O)c1ccc(F)c(-c2nnc(NC[C@]3(c4ncccc4F)C[C@H](F)C3)s2)c1 [2-(4-fluoro-3-(5-((3-fluoro-1-(3-fluoropyridin-2-yl)cyclobutyl)methylamino)-1,3,4-thiadiazol-2-yl)phenyl)propan-2-ol]
29 | D (D=>20 uM) | Cn1cc(-c2nnc(NC[C@]3(c4ncccc4F)C[C@H](F)C3)s2)cn1 [N-((3-fluoro-1-(3-fluoropyridin-2-yl)cyclobutyl)methyl)-5-(1-methyl-1H-pyrazol-4-yl)-1,3,4-thiadiazol-2-amine]
30 | C (C=10-20 uM) | Fc1cccnc1[C@]1(CNc2nnc(-c3ccc(Br)s3)s2)C[C@H](F)C1 [5-(5-bromothiophen-2-yl)-N-(((cis)-3-fluoro-1-(3-fluoropyridin-2-yl)cyclobutyl)methyl)-1,3,4-thiadiazol-2-amine]
31 | B (B=1-10 uM) | N#Cc1ccc(F)c(-c2nnc(NC[C@]3(c4ncccc4F)C[C@H](F)C3)s2)c1 [4-fluoro-3-(5-((3-fluoro-1-(3-fluoropyridin-2-yl)cyclobutyl)methylamino)-1,3,4-thiadiazol-2-yl)benzonitrile]
32 | B (B=1-10 uM) | Cc1ccc(-c2nnc(NC[C@]3(c4ncccc4F)C[C@H](F)C3)s2)s1 [N-(((trans)-3-fluoro-1-(3-fluoropyridin-2-yl)cyclobutyl)methyl)-5-(5-methylthiophen-2-yl)-1,3,4-thiadiazol-2-amine]
33 | A (A=<1 uM) | Fc1cccnc1C1(CNc2nnc(-c3ccccc3Cl)s2)CCC1 [5-(2-chlorophenyl)-N-((1-(3-fluoropyridin-2-yl)cyclobutyl)methyl)-1,3,4-thiadiazol-2-amine]
34 | A (A=<1 uM) | Fc1cccnc1[C@]1(CNc2nnc(-c3cc(Br)ccc3Cl)s2)C[C@H](F)C1 [5-(5-bromo-2-chlorophenyl)-N-(((cis)-3-fluoro-1-(3-fluoropyridin-2-yl)cyclobutyl)methyl)-1,3,4-thiadiazol-2-amine]
35 | B (B=1-10 uM) | N#Cc1ccc(F)c(-c2nnc(NCC3(c4ncccc4F)CCC3)s2)c1 [4-fluoro-3-(5-((1-(3-fluoropyridin-2-yl)cyclobutyl)methylamino)-1,3,4-thiadiazol-2-yl)benzonitrile]
36 | B (B=1-10 uM) | Cc1ccc(-c2nnc(NCC3(c4ncccc4F)CCC3)s2)cc1 [N-((1-(3-fluoropyridin-2-yl)cyclobutyl)methyl)-5-p-tolyl-1,3,4-thiadiazol-2-amine]

Same assay, conditions: Table 4; concentration at which the compound increased enzymatic activity by 40%; calcium at pCa25

Row | Mean AC1.4 | Compound
37 | C (C=10-20 uM) | COc1ccc(C2(CNc3nc4ccc(C(N)=O)cc4s3)CCC2)nc1 [2-((1-(5-methoxypyridin-2-yl)cyclobutyl)methylamino)benzo[d] thiazole-6-carboxamide]
38 | A (A=<1 uM) | COc1ccc2nc(NCC(C)(C)c3ccc(F)cc3)sc2c1 [N-(2-(4-fluorophenyl)-2-methylpropyl)-6-methoxybenzo[d]thiazol-2-amine]
39 | B (B=1-10 uM) | NC(=O)c1ccc2nc(NCCc3ccc(F)cc3)sc2c1 [2-(4-fluorophenethylamino)benzo[d] thiazole-6-carboxamide]
40 | A (A=<1 uM) | CC(C)(CNc1nc2c(Cl)cc(C(N)=O)cc2s1)c1ccc(F)cc1 [4-chloro-2-(2-(4-fluorophenyl)-2-methylpropylamino)benzo[d] thiazole-6-carboxamide]

Same assay, conditions: Table 5; concentration at which the compound increased enzymatic activity by 40%; calcium at pCa25

Row | Mean AC1.4 | Compound
41 | D (D=>20 uM) | Fc1cccnc1C1(CNc2nc(-c3ccccc3)co2)CCC1 [N-((1-(3-fluoropyridin-2-yl)cyclobutyl)methyl)-4-phenyloxazol-2-amine]
42 | B (B=1-10 uM) | Fc1cccnc1C1(CNc2nc(-c3ccccc3)cs2)CCC1 [N-((1-(3-fluoropyridin-2-yl)cyclobutyl)methyl)-4-phenylthiazol-2-amine]
43 | C (C=10-20 uM) | CC(C)(Nc1nnc(-c2cc(C(N)=O)ccc2F)o1)c1ccc(F)cc1 [4-fluoro-3-(5-(2-(4-fluorophenyl)propan-2-ylamino)-1,3,4-oxadiazol-2-yl)benzamide]

From US9278962B2 (Cytokinetics, Inc., priority 2011, dated 2016)
